# From patent publication US10076505B2, “Inhalation formulations of Treprostinil” (priority 2003, dated 2018)
# Tested on: sheep
# Assay: Intravenous and aerosolized UT-15 dose response during U44069 induced pulmonary hypertension (Example V)
# Assay type: in vivo
# Settings: for left atrial pressure: all three delivery rates
# Excerpt: Sheep were used as the animal model of choice for these experiments for a number of reasons. First is the docile nature of sheep. They will stand quietly in metabolic cages without having to utilize tranquilizing drugs, which have the potential to complicate experimental results. Second, sheep are large enough to allow direct measurement of CO, PPA, PLA, PCV, and PSYS. Sheep are also large enough to allow direct aerosolization of substances into the lung via trachoestomy thereby preventing swallowing of drugs and thus eliminating a possible secondary route of administration of UT-15. Third, sheep can tolerate a great amount of instrumentation with little or no discomfort. Fourth, sheep have been utilized for several years as an animal model of pulmonary arterial hypertension and thus, there is a great amount of historical data with which to compare the results. […] The reasons for using U44069 are that it is a very potent pulmonary vasoconstrictor, its characteristics are very similar to endogenously formed thromboxane A2, and it can be titrated to induce the desired degree of pulmonary vasoconstriction. U44069 was mixed with sterile normal saline immediately prior to being used and was protected from light by wrapping the solution with aluminum foil. The concentration of U44069 was adjusted such that a minimal flow rate of 0.8 ml per min was being infused into the sheep. This was done because more concentrated U44069 would have to be infused at very low rates and often causes “pulses” of U44069 due to the infusion characteristics of roller pumps. The U44069 pulses cause vasoconstriction “spikes” and thus would create induce a non-steady-state. Six yearling sheep (3 males, 3 females; 21-37 kg) were fasted 18-24 hours and initially anesthetized with a short acting barbiturate (thiopental) to allow intubation of the sheep. Halothane gas anesthesia (1.5-2.5%) was then used for the surgical procedures. Via a left thoracotomy, a Transonic blood flow probe was placed around the main pulmonary artery, silastic catheters placed in the main pulmonary artery and left atrium. After approximately 7 days the sheep were reanesthetized and the left carotid artery cannulated, a Cordis Introducer Sheath inserted in the left jugular vein, and a tracheotomy made. The sheep were allowed to recover for another 3-5 days prior to experimentation. These sheep were used to allow measurement of pulmonary arterial pressure (PPA), left atrial pressure (PLA), central venous pressure (PCV), systemic arterial pressure (PSYS), heart rate (HR), and cardiac output (CO) after baseline measurements were made for a minimum of 30 minutes. Two separate experiments were conducted to determine the dose response effects of intravenously infused UT-15 and aerosolized UT-15 during U44069 induced pulmonary hypertension. After a 30 minute baseline was established, U44069 was infused intravenously at a rate of 1 ng per kg per min. For the intravenous administration of UT-15 and after allowing the sheep to achieve a steady-state for 30-60 minutes, a dose-response to intravenous UT-15 was similar to that set forth in Example IV. For the aerosolized administration of UT-15 and after allowing the sheep to achieve a steady-state for 30-60 minutes, a dose-response to intravenous UT-15 was similar to that set forth in Example IV. In each experimental protocol, UT-15 was administered to three sheep for 30 minutes and to the other three sheep for 60 minutes.
# [1] = during U44069 infusion, aerosol
# [2] = during U44069 infusion, aerosolized
# [3] = during U44069 infusion, intravascular
# [4] = during U44069 infusion, intravenous
smiles,measurement,setting,value
"CCCCC[C@H](O)CC[C@@H]1[C@H]2Cc3cccc(OCC(=O)O)c3C[C@H]2C[C@H]1O [UT-15, 9-deoxy-2′,9-alpha-methano-3-oxa-4,5,6-trinor-3,7-(1′,3′-interphenylene)-13,14-dihydro-prostaglandin F1]",cardiac output,[1],no effect
same,time at which UT-15 began to attenuate the increase in PVR,[1],4 to 5 min
same,left atrial pressure,[1],increased above baseline
same,heart rate,[2],no effect
same,off response (PVR),[2],43 min
same,systemic arterial pressure,[2],no statistical differences
same,PPA,"during U44069 infusion, aerosolized, 500 and 1000 ng per kg per min",back to normal values
same,PVR relative to baseline PVR,"during U44069 infusion, aerosolized, any of the three delivery rates",no significant difference
same,PPA relative to U44069 value,[3],decrease significantly
same,pulmonary vascular driving pressure (PPA-PLA),[3],unchanged
same,off response (PVR),[4],12 min
same,systemic arterial pressure,[4],no statistical differences
same,time at which UT-15 began to attenuate the increase in PVR,[4],4 to 5 min
same,central venous pressure,"during U44069 infusion, intravenous, 500 and 1000 ng per kg per min",different from the U44069 values
same,heart rate,"during U44069 infusion, intravenous, 500 and 1000 ng per kg per min different from U44069 values",increase above the values during U44069 conditions
same,cardiac output,"during U44069 infusion, intravenous, significant at 500 and 100 ng per kg per min",dose-response increase
same,left atrial pressure,"during U44069 infusion, intravenously infused",significant decrease from the U44069 value
same,U44069-induced increase in PVR,"intravenously infused, 500 and 1000 ng per kg per min",significantly attenuated
